Source: ChEMBL document CHEMBL4507271, “Data for DCP probe BAY-707” (2021)

Legend:
D(4) dopamine receptor = D(4) dopamine receptor (Homo sapiens, UniProt P21917); experiment: GPCRScan assay: inhibition of D4; parameters: radioligand conc. used [nm] 0.6 – 1.7, parental cells Stable HEK
[1] = target: GABA-A receptor; anion channel; experiment: GPCRScan assay: inhibition of GABAA/BZP; type: protein-complex assay, Rattus norvegicus; parameters: radioligand conc. used [nm] 0.6 – 4.0, parental cells brain tissue
[2] = target: Oxidized purine nucleoside triphosphate hydrolase (Homo sapiens, UniProt P36639); experiment: PPiLight Biochemical Assay
[3] = target: 5-hydroxytryptamine receptor 1A (Homo sapiens) (UniProt P08908); conditions: Compound concentration 10.0 uM
[4] = target: 5-hydroxytryptamine receptor 1B (Homo sapiens) (UniProt P28222); conditions: Compound concentration 10.0 uM
[5] = target: 5-hydroxytryptamine receptor 1D (Homo sapiens) (UniProt P28221); conditions: Compound concentration 10.0 uM
[6] = target: 5-hydroxytryptamine receptor 1E (Homo sapiens) (UniProt P28566); conditions: Compound concentration 10.0 uM
5-hydroxytryptamine receptor 1E (Homo sapiens), sequence (P28566 whole entry): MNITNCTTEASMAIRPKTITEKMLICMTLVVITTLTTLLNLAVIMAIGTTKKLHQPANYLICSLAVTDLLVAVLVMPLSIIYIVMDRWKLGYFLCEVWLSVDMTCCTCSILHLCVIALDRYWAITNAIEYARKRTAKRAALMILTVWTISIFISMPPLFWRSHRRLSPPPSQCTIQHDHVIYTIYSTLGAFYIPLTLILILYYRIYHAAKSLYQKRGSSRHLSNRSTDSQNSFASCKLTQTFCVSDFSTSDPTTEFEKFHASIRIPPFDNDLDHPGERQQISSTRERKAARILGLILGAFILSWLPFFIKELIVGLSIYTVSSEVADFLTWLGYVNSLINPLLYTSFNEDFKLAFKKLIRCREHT

[7] = target: 5-hydroxytryptamine receptor 2A (Homo sapiens) (UniProt P28223); conditions: Compound concentration 10.0 uM
[8] = target: 5-hydroxytryptamine receptor 2B (Homo sapiens) (UniProt P41595); conditions: Compound concentration 10.0 uM
5-hydroxytryptamine receptor 2B (Homo sapiens), sequence (P41595 whole entry): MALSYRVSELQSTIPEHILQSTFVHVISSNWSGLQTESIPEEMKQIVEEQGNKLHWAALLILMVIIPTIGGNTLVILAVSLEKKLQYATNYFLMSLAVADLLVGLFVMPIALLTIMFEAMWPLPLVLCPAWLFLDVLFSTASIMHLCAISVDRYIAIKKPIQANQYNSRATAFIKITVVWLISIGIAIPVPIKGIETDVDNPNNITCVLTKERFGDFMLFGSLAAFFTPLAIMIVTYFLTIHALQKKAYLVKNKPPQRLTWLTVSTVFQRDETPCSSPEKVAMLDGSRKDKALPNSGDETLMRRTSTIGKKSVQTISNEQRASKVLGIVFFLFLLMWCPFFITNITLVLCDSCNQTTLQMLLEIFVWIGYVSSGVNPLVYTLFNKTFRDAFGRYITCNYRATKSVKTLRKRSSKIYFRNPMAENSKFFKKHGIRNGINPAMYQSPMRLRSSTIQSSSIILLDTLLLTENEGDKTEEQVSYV

[9] = target: 5-hydroxytryptamine receptor 2C (Homo sapiens) (UniProt P28335); conditions: Compound concentration 10.0 uM
[10] = target: 5-hydroxytryptamine receptor 3A (Homo sapiens) (UniProt P46098); conditions: Compound concentration 10.0 uM
[11] = target: 5-hydroxytryptamine receptor 6 (Homo sapiens) (UniProt P50406); conditions: Compound concentration 10.0 uM
[12] = target: 5-hydroxytryptamine receptor 7 (Homo sapiens) (UniProt P34969); conditions: Compound concentration 10.0 uM
5-hydroxytryptamine receptor 7 (Homo sapiens), sequence (P34969 whole entry): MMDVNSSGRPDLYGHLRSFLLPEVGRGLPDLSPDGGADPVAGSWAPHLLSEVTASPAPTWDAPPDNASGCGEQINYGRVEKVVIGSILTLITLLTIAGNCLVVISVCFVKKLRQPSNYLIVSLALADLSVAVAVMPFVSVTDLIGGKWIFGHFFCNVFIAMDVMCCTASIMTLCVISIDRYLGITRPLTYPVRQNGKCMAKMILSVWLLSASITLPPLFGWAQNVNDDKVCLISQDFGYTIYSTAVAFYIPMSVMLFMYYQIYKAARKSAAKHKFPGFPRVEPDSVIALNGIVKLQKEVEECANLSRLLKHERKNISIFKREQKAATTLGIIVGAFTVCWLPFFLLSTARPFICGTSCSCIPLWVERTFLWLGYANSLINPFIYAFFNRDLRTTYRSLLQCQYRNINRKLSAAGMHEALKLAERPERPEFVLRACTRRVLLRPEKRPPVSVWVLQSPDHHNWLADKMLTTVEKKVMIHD

[13] = target: D(1A) dopamine receptor (Homo sapiens) (UniProt P21728); conditions: Compound concentration 10.0 uM
[14] = target: D(2) dopamine receptor (Homo sapiens) (UniProt P14416); conditions: Compound concentration 10.0 uM
[15] = target: D(3) dopamine receptor (Homo sapiens) (UniProt P35462); conditions: Compound concentration 10.0 uM
[16] = target: D(4) dopamine receptor (Homo sapiens) (UniProt P21917); conditions: Compound concentration 10.0 uM
[17] = target: Sodium-dependent noradrenaline transporter (Homo sapiens) (UniProt P23975); conditions: Compound concentration 10.0 uM
[18] = target: Mu-type opioid receptor (Homo sapiens) (UniProt P35372); conditions: Compound concentration 10.0 uM
Mu-type opioid receptor (Homo sapiens), sequence (P35372 whole entry): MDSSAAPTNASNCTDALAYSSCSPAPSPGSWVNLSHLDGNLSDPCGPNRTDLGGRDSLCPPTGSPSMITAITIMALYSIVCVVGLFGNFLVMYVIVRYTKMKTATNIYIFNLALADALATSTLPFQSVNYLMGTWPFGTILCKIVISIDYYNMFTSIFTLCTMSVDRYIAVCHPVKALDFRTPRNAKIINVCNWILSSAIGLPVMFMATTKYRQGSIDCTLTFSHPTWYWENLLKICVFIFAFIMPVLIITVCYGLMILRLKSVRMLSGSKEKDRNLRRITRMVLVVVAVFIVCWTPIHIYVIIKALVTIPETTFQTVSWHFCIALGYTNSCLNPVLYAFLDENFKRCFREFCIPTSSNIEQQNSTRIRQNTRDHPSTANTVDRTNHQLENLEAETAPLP

[19] = target: Delta-type opioid receptor (Homo sapiens) (UniProt P41143); conditions: Compound concentration 10.0 uM
[20] = target: Kappa-type opioid receptor (Homo sapiens) (UniProt P41145); conditions: Compound concentration 10.0 uM
[21] = target: T1, GABA-A receptor; anion channel (Rattus norvegicus) (UniProt O09028+P15431+P18506+P18508+P19969+P20236+P23574+P23576+P28471+P28473+P30191+P62813+P63079+P63138+Q91ZM7+Q9ES14); conditions: Compound concentration 10.0 uM
[22] = target: Histamine H1 receptor (Homo sapiens) (UniProt P35367); conditions: Compound concentration 10.0 uM
[23] = target: Histamine H2 receptor (Homo sapiens) (UniProt P25021); conditions: Compound concentration 10.0 uM
[24] = target: Histamine H3 receptor (Homo sapiens) (UniProt Q9Y5N1); conditions: Compound concentration 10.0 uM
[25] = target: Histamine H4 receptor (Homo sapiens) (UniProt Q9H3N8); conditions: Compound concentration 10.0 uM
Histamine H4 receptor (Homo sapiens), sequence (Q9H3N8 whole entry): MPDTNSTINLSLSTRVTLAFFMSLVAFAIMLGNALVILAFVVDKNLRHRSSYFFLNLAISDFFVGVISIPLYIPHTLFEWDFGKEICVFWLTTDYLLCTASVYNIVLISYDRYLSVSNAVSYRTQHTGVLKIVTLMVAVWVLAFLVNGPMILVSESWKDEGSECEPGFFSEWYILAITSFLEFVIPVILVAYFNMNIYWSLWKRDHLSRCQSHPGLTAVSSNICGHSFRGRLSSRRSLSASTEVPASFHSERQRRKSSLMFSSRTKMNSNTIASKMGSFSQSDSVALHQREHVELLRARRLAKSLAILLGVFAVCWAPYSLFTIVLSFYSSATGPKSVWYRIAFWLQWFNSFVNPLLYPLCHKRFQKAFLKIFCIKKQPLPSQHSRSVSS

[26] = target: Alpha-1A adrenergic receptor (Homo sapiens) (UniProt P35348); conditions: Compound concentration 10.0 uM
[27] = target: Alpha-1B adrenergic receptor (Homo sapiens) (UniProt P35368); conditions: Compound concentration 10.0 uM
[28] = target: Alpha-2A adrenergic receptor (Homo sapiens) (UniProt P08913); conditions: Compound concentration 10.0 uM
Alpha-2A adrenergic receptor (Homo sapiens), sequence (P08913 whole entry): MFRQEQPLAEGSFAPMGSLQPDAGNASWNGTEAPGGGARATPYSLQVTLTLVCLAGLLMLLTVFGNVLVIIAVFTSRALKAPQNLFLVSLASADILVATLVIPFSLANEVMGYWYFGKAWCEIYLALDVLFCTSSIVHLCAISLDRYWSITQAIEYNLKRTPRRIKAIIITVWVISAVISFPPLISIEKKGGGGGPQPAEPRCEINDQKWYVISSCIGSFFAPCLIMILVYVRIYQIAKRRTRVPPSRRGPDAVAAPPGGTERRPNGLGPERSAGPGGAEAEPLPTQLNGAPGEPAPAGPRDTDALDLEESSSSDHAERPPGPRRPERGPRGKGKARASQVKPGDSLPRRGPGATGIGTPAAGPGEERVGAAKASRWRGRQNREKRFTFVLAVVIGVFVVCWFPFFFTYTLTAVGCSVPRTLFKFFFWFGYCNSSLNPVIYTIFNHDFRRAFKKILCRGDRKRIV

[29] = target: Alpha-2B adrenergic receptor (Homo sapiens) (UniProt P18089); conditions: Compound concentration 10.0 uM
[30] = target: Alpha-2C adrenergic receptor (Homo sapiens) (UniProt P18825); conditions: Compound concentration 10.0 uM
Alpha-2C adrenergic receptor (Homo sapiens), sequence (P18825 whole entry): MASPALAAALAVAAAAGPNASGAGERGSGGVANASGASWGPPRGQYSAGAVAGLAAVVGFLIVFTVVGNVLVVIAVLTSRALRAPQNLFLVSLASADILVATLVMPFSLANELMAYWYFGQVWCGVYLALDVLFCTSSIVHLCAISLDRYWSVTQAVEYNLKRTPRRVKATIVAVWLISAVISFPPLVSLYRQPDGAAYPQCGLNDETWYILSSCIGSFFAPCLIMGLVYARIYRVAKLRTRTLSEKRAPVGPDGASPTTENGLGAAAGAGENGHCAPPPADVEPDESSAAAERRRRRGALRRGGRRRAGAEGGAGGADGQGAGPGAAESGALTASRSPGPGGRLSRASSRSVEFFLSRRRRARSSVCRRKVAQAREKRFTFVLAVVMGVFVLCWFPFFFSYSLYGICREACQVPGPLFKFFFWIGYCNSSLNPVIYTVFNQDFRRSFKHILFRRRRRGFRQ

[31] = target: Beta-2 adrenergic receptor (Homo sapiens) (UniProt P07550); conditions: Compound concentration 10.0 uM
[32] = target: Muscarinic acetylcholine receptor M1 (Homo sapiens) (UniProt P11229); conditions: Compound concentration 10.0 uM
Muscarinic acetylcholine receptor M1 (Homo sapiens), sequence (P11229 whole entry): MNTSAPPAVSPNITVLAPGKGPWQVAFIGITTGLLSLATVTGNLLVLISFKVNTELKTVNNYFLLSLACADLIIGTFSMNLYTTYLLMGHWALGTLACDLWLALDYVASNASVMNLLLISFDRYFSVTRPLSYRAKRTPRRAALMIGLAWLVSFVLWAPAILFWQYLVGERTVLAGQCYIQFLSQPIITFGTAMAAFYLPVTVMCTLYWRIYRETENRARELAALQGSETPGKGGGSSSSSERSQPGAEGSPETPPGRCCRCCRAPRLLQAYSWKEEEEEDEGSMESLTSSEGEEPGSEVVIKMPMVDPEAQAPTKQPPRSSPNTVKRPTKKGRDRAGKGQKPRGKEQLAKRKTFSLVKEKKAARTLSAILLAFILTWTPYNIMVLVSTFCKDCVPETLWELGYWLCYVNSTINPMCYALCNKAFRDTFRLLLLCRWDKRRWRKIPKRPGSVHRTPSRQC

[33] = target: Muscarinic acetylcholine receptor M2 (Homo sapiens) (UniProt P08172); conditions: Compound concentration 10.0 uM
Muscarinic acetylcholine receptor M2 (Homo sapiens), sequence (P08172 whole entry): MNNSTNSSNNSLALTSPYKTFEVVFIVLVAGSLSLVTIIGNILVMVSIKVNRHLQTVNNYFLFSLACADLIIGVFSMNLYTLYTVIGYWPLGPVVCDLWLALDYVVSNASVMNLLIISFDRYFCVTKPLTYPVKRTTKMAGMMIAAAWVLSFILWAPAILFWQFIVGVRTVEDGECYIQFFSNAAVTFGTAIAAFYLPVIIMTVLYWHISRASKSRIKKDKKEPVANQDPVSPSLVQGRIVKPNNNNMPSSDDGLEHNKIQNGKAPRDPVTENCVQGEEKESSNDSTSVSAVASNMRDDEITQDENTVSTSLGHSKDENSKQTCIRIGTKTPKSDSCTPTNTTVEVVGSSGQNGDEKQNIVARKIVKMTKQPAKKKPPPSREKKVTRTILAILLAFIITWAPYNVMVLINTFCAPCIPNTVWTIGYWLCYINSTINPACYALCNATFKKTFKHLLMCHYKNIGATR

[34] = target: Muscarinic acetylcholine receptor M3 (Homo sapiens) (UniProt P20309); conditions: Compound concentration 10.0 uM
[35] = target: Muscarinic acetylcholine receptor M4 (Homo sapiens) (UniProt P08173); conditions: Compound concentration 10.0 uM
[36] = target: Muscarinic acetylcholine receptor M5 (Homo sapiens) (UniProt P08912); conditions: Compound concentration 10.0 uM
Muscarinic acetylcholine receptor M5 (Homo sapiens), sequence (P08912 whole entry): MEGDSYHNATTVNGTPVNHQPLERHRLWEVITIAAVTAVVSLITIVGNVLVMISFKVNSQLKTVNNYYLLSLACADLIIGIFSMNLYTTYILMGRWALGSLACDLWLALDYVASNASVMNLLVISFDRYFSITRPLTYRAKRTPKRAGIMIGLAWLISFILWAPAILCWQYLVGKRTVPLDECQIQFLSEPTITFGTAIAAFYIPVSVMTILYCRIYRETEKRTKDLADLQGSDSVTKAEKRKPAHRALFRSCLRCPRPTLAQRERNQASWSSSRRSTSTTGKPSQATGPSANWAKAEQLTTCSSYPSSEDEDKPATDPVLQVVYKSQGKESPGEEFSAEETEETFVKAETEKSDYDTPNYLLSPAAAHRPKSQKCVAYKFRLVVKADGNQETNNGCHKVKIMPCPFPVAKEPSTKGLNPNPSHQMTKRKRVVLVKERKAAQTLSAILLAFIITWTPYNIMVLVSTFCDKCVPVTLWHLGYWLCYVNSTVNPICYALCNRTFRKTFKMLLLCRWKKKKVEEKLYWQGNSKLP

[37] = target: Beta-3 adrenergic receptor (Homo sapiens) (UniProt P13945); conditions: Compound concentration 10.0 uM
[38] = target: T1, GABA-A receptor; anion channel (Rattus norvegicus); conditions: Compound concentration 10.0 uM; remark: listed apart in the source
Rattus norvegicus = species on record: Rattus norvegicus; conditions: Compound concentration 10.0 uM
[39] = target: Alpha-1D adrenergic receptor (Homo sapiens) (UniProt P25100); conditions: Compound concentration 10.0 uM
[40] = target: Sigma intracellular receptor 2 (Homo sapiens) (UniProt Q5BJF2); conditions: Compound concentration 10.0 uM
Sigma intracellular receptor 2 (Homo sapiens), sequence (Q5BJF2 whole entry): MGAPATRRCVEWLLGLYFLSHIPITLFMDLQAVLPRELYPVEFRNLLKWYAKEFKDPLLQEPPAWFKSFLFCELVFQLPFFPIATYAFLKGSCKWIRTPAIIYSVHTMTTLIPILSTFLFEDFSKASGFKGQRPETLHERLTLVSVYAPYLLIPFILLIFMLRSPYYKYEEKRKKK

[41] = target: Sigma non-opioid intracellular receptor 1 (Homo sapiens) (UniProt Q99720); conditions: Compound concentration 10.0 uM
Sigma non-opioid intracellular receptor 1 (Homo sapiens), sequence (Q99720 whole entry): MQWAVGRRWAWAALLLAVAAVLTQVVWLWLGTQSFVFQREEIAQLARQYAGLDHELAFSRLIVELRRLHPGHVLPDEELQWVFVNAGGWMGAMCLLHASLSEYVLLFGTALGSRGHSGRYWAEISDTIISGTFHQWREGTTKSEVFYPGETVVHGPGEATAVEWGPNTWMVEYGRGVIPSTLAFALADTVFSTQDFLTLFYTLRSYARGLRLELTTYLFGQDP

[42] = target: 5-hydroxytryptamine receptor 1A (Homo sapiens, UniProt P08908); experiment: GPCRScan assay: inhibition of 5-HT1A; parameters: radioligand conc. used [nm] 0.5 – 1.0, parental cells stable CHO
[43] = target: 5-hydroxytryptamine receptor 5A (Homo sapiens) (UniProt P47898); conditions: Compound concentration 10.0 uM
[44] = target: D(1B) dopamine receptor (Homo sapiens) (UniProt P21918); conditions: Compound concentration 10.0 uM
[45] = target: Sodium-dependent dopamine transporter (Homo sapiens) (UniProt Q01959); conditions: Compound concentration 10.0 uM

SMILES: CCNC(=O)c1cc2c(N3CCOC[C@@H]3C)ccnc2n1C
- Ki (D(4) dopamine receptor; read-out: Ki): 0.736 µM
- Ki (D(4) dopamine receptor; read-out: pKi (converted)): 0.708 µM
- Ki [1]: 0.224 µM
- pKi [1]: 6.72
- IC50 [2]: > 20 µM (not active)
- inhibition [3]: -1.88%
- inhibition [4]: -8.46%
- inhibition [5]: -0.31%
- inhibition [6]: 9.36%
- inhibition [7]: -1.68%
- inhibition [8]: 2.79%
- inhibition [9]: 46.2%
- inhibition [10]: 18.6%
- inhibition [11]: 31.9%
- inhibition [12]: -1.21%
- inhibition [13]: 14.2%
- inhibition [14]: -1.89%
- inhibition [15]: 12.1%
- inhibition [16]: 77.6%
- inhibition [17]: 5.35%
- inhibition [18]: 0.08%
- inhibition [19]: 2.73%
- inhibition [20]: 14.6%
- inhibition [21]: -1.39%
- inhibition [22]: 26%
- inhibition [23]: -3.91%
- inhibition [24]: -6.16%
- inhibition [25]: 5.51%
- inhibition [26]: 3.94%
- inhibition [27]: 5.71%
- inhibition [28]: 16.9%
- inhibition [29]: -2.44%
- inhibition [30]: -1.28%
- inhibition [31]: 27.3%
- inhibition [32]: 11.9%
- inhibition [33]: 7.19%
- inhibition [34]: 38%
- inhibition [35]: 5.75%
- inhibition [36]: -0.9%
- inhibition [37]: -9.19%
- inhibition [38]: 84.2%
- inhibition (Rattus norvegicus): 17.2%
- inhibition [39]: -8.1%
- inhibition [40]: 30.4%
- inhibition [41]: 24.5%

SMILES: CCNC(=O)c1cc2c(N3CCOC[C@@H]3C)ccnc2[nH]1
- Ki [42]: 10 µM
- Ki [1]: 1.53 µM
- inhibition [3]: 69.8%
- inhibition [4]: -1.66%
- inhibition [5]: -7.55%
- inhibition [6]: 10.6%
- inhibition [7]: -7.89%
- inhibition [8]: 47.1%
- inhibition [9]: -4.02%
- inhibition [10]: -1.37%
- inhibition [43]: -8.05%
- inhibition [11]: -8.52%
- inhibition [12]: -4.45%
- inhibition [13]: 1.92%
- inhibition [14]: 12.3%
- inhibition [15]: -7.82%
- inhibition [16]: -3.84%
- inhibition [44]: 34.3%
- inhibition [17]: 40.2%
- inhibition [45]: 25.5%
- inhibition [18]: 24.8%
- inhibition [19]: -0.04%
- inhibition [20]: 13.1%
- inhibition [21]: 28.2%
- inhibition [22]: 4.94%
- inhibition [23]: 1.31%
- inhibition [24]: 40.5%
- inhibition [25]: 0.0286%
- inhibition [26]: 1.88%
- inhibition [27]: -2.4%
- inhibition [28]: 18.1%
- inhibition [29]: 34.4%
- inhibition [30]: 3.16%
- inhibition [31]: -6.09%
- inhibition [32]: 21.7%
- inhibition [33]: -1.26%
- inhibition [36]: -4.95%
- inhibition [37]: 14.3%
- inhibition [38]: 57.3%
- inhibition (Rattus norvegicus): 30.1%
- inhibition [39]: 8.58%
- inhibition [40]: 34.6%
- inhibition [41]: 24.3%
